According to patent US6515106B1, “Lysozyme-analogous polypeptides with an anti-microbial effect, their production and use” (priority 1997, dated 2003):
Read-outs that look alike come from different tables or passages of the source.

Tests used:
Phytophthora nicotianae = assay: Fungus tests: relative lengths of germ tubes (untitled table, buffers I/II); assay type: cell-based
Procedure: Fungus tests: Relative lengths of germ tubes
(§1) The bactericidal effect of the individual fragments is readily determined by incubation (use of 1-10 μg polypeptide for a quantity of 1×10^7 bacteria cells) for one hour with Escherichia coli or other gram-negative (e.g. Erwinia carotovora, Agrobacterium tumefaciens, Pseudomonas fluorescens) or gram-positive type of bacteria (e.g. Micrococcus lysodeikticus, Clavibacter michiganensis), followed by plating out a dilution series of the suspension, and counting the surviving bacteria. The fungicidal effect of the individual fragments is determined by incubation for 20 hours with spores of Phytophthora nicotianae, or other fungus types, followed by plating out to determine the reduced growth length of the fungus hyphae. The activity is determined in relation to purified T4 lysozyme as standard.

[1] = system: Phytophthora nicotianae zoospores; assay: Relative length of germ tubes of Phytophthora nicotianae zoospores (fungicidal activity, Table 2); assay type: cell-based; details: 10 μg, in 0.1 xPBS, after 7 hrs, against blank control
muramidase = assay: Enzyme activity (muramidase) of the polypeptide; assay type: biochemical, bacteriophage T4
Escherichia coli cells = assay: Relative survival rates of Escherichia coli cells after 1 hr incubation (bactericidal activity); assay type: cell-based; details: for Relative survival rate of Escherichia coli cells: in 0.1 × PBS, 1 hr incubation
Procedure: The antibiotic effectiveness of the polypeptides of the invention is illustrated by their effect on survival rates of Escherichia coli cells in Table 1.
as §1

PNRAKRVIFTFRT [Peptide A4]
Relative lengths of germ tubes (Phytophthora nicotianae; 1 μg, in buffer I (20 μl buffer Al + 1 μl PBS)): 0.59
Relative length of germ tubes [1]: 0.48
Enzyme activity (muramidase), in words (muramidase): no enzymatic muramidase activity
Enzyme activity (muramidase), in words (muramidase; listed as amino acid 143-155): none of the native enzymatic activity
Relative survival rate of Escherichia coli cells (Escherichia coli cells; 1 μg): 0.74 +/− 0.14
Relative survival rate of Escherichia coli cells (Escherichia coli cells; 10 μg): 0.05 +/− 0.09
Bactericidal activity compared with T4 lysozyme, in words (Escherichia coli cells; comment on Table 1): significantly higher bactericidal activity

WDEAAVNLAKSRWYNQ [Peptide A23, peptide including AA 126-141 of T4 lysozyme]
Relative lengths of germ tubes (Phytophthora nicotianae; 10 μg, in buffer II (20 μl buffer Al + 1 μl 50% DMSO/50% PBS)): 0.69
